Experimental data from patent US11945813B2, “5-substituted 4-amino-1H-benzo[c][1,2,6]thiadiazine 2,2-dioxides and formulations and uses thereof” (Firmenich Incorporated, priority 2018, dated 2024).

Molecular target: T1, T1R2/T1R3 taste receptor (Homo sapiens, UniProt Q8TE23)
T1 sequence (Q8TE23 20-839): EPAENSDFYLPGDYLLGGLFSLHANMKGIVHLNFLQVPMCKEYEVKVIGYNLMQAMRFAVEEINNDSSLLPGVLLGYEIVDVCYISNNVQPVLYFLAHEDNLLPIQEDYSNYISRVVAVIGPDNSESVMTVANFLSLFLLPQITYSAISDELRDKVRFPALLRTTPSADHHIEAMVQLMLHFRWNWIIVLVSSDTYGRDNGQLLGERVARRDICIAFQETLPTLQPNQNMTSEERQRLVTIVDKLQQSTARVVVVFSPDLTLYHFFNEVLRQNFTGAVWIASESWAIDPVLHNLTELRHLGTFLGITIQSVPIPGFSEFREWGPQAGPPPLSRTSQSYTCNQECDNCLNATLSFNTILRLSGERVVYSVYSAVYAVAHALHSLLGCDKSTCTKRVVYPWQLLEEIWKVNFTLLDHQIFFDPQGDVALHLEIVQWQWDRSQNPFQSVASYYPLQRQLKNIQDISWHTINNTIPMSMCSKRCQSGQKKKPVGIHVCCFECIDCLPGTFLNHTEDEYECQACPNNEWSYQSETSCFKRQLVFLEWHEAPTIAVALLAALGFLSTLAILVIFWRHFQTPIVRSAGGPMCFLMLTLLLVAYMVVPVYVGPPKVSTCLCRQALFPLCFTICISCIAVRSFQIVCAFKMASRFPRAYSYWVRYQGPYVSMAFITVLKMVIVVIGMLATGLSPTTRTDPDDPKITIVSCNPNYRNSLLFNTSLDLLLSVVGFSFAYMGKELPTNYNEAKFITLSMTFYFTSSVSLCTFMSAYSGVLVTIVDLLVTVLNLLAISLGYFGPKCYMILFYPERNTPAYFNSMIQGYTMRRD
T1 sequence (Q7RTX0 21-852 partner): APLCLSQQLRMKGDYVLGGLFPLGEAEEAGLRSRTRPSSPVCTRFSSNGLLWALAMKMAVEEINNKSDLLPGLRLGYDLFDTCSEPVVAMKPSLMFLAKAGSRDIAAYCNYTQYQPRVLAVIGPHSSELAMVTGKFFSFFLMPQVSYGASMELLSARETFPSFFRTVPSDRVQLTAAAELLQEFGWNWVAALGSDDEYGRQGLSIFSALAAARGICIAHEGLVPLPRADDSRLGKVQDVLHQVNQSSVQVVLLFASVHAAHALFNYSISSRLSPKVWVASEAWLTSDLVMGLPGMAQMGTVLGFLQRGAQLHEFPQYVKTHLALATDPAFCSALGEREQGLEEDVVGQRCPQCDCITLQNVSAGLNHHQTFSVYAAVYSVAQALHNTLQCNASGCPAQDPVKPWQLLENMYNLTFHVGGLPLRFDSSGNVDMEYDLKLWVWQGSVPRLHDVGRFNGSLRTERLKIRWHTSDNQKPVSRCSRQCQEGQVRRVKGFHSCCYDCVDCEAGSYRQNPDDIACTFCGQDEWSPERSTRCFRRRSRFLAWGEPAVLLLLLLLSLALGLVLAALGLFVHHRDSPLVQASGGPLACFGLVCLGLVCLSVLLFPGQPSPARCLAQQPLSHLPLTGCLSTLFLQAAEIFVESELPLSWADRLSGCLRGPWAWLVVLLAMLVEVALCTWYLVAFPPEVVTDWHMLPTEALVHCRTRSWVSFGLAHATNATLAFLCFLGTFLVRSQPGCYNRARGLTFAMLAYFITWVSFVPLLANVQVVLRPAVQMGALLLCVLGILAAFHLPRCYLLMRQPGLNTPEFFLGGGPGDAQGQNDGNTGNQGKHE
Assay: Receptor-based assay: sweetener EC50 alone and with test compound (enhancement ratio)
Assay type: cell-based
Conditions: for Fructose Enhancement EC50 Ratio: sweetener fructose; for Sucralose Enhancement EC50 Ratio: sweetener sucralose; for Sucrose Enhancement EC50 Ratio: sweetener sucrose
Procedure, shortened: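 Sucrose, sucralose or fructose EC50 measured on human T1R2/T1R3, alone and with 3, 10 or 50 μM test compound. Enhancement is the EC50 ratio without/with compound, binned A >20, B 10-20, C >1 to <10.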

NC1=NS(=O)(=O)Nc2cccc(OC[C@H]3CCCN(c4ccc(C(=O)N5CCCCC5)cn4)C3)c21 [Compound 513]
Fructose Enhancement EC50 Ratio (10 μM test compound): C (A “C” value indicates an enhancement ratio greater than 1 and less than 10) | Fructose Enhancement EC50 Ratio (50 μM test compound): C (A “C” value indicates an enhancement ratio greater than 1 and less than 10) | Sucralose Enhancement EC50 Ratio (10 μM test compound): A (An “A” value indicates an enhancement ratio of greater than 20) | Sucralose Enhancement EC50 Ratio (50 μM test compound): A (An “A” value indicates an enhancement ratio of greater than 20) | Sucrose Enhancement EC50 Ratio (3 μM test compound): C (A “C” value indicates an enhancement ratio greater than 1 and less than 10) | Sucrose Enhancement EC50 Ratio (10 μM test compound): C (A “C” value indicates an enhancement ratio greater than 1 and less than 10) | Sucrose Enhancement EC50 Ratio (50 μM test compound): C (A “C” value indicates an enhancement ratio greater than 1 and less than 10)

NC1=NS(=O)(=O)Nc2cccc(OC[C@H]3CCCN(c4ccc(C(=O)N5CCOCC5)cn4)C3)c21 [Compound 514]
Fructose Enhancement EC50 Ratio (10 μM test compound): C (A “C” value indicates an enhancement ratio greater than 1 and less than 10) | Fructose Enhancement EC50 Ratio (50 μM test compound): C (A “C” value indicates an enhancement ratio greater than 1 and less than 10) | Sucralose Enhancement EC50 Ratio (10 μM test compound): A (An “A” value indicates an enhancement ratio of greater than 20) | Sucralose Enhancement EC50 Ratio (50 μM test compound): B (A “B” value indicates an enhancement ratio from 10 to 20) | Sucrose Enhancement EC50 Ratio (3 μM test compound): C (A “C” value indicates an enhancement ratio greater than 1 and less than 10) | Sucrose Enhancement EC50 Ratio (10 μM test compound): C (A “C” value indicates an enhancement ratio greater than 1 and less than 10) | Sucrose Enhancement EC50 Ratio (50 μM test compound): C (A “C” value indicates an enhancement ratio greater than 1 and less than 10)

CC(C)CNC(=O)c1ccc(N2CCC[C@H](COc3cccc4c3C(N)=NS(=O)(=O)N4)C2)nc1 [Compound 515]
Fructose Enhancement EC50 Ratio (10 μM test compound): C (A “C” value indicates an enhancement ratio greater than 1 and less than 10) | Fructose Enhancement EC50 Ratio (50 μM test compound): C (A “C” value indicates an enhancement ratio greater than 1 and less than 10) | Sucralose Enhancement EC50 Ratio (10 μM test compound): A (An “A” value indicates an enhancement ratio of greater than 20) | Sucralose Enhancement EC50 Ratio (50 μM test compound): A (An “A” value indicates an enhancement ratio of greater than 20) | Sucrose Enhancement EC50 Ratio (3 μM test compound): C (A “C” value indicates an enhancement ratio greater than 1 and less than 10) | Sucrose Enhancement EC50 Ratio (10 μM test compound): C (A “C” value indicates an enhancement ratio greater than 1 and less than 10) | Sucrose Enhancement EC50 Ratio (50 μM test compound): C (A “C” value indicates an enhancement ratio greater than 1 and less than 10)

NC1=NS(=O)(=O)Nc2cccc(OC[C@H]3CCCN(c4ccc(C(=O)NCC5CC5)cn4)C3)c21 [Compound 516]
Fructose Enhancement EC50 Ratio (50 μM test compound): C (A “C” value indicates an enhancement ratio greater than 1 and less than 10) | Sucralose Enhancement EC50 Ratio (10 μM test compound): A (An “A” value indicates an enhancement ratio of greater than 20) | Sucralose Enhancement EC50 Ratio (50 μM test compound): A (An “A” value indicates an enhancement ratio of greater than 20) | Sucrose Enhancement EC50 Ratio (3 μM test compound): C (A “C” value indicates an enhancement ratio greater than 1 and less than 10) | Sucrose Enhancement EC50 Ratio (10 μM test compound): C (A “C” value indicates an enhancement ratio greater than 1 and less than 10) | Sucrose Enhancement EC50 Ratio (50 μM test compound): C (A “C” value indicates an enhancement ratio greater than 1 and less than 10)

NC1=NS(=O)(=O)Nc2cccc(OC[C@H]3CCCN(c4ccc(C(=O)NCC5CCCCC5)cn4)C3)c21 [Compound 517]
Sucralose Enhancement EC50 Ratio (10 μM test compound): C (A “C” value indicates an enhancement ratio greater than 1 and less than 10) | Sucralose Enhancement EC50 Ratio (50 μM test compound): B (A “B” value indicates an enhancement ratio from 10 to 20) | Sucrose Enhancement EC50 Ratio (3 μM test compound): C (A “C” value indicates an enhancement ratio greater than 1 and less than 10) | Sucrose Enhancement EC50 Ratio (10 μM test compound): C (A “C” value indicates an enhancement ratio greater than 1 and less than 10) | Sucrose Enhancement EC50 Ratio (50 μM test compound): C (A “C” value indicates an enhancement ratio greater than 1 and less than 10)

CNC(=O)c1ccnc(N2CCC[C@H](COc3cccc4c3C(N)=NS(=O)(=O)N4)C2)c1 [Compound 600]
Sucralose Enhancement EC50 Ratio (10 μM test compound): A (An “A” value indicates an enhancement ratio of greater than 20) | Sucralose Enhancement EC50 Ratio (50 μM test compound): A (An “A” value indicates an enhancement ratio of greater than 20) | Sucrose Enhancement EC50 Ratio (3 μM test compound): C (A “C” value indicates an enhancement ratio greater than 1 and less than 10) | Sucrose Enhancement EC50 Ratio (50 μM test compound): B (A “B” value indicates an enhancement ratio from 10 to 20)

CCNC(=O)c1ccnc(N2CCC[C@H](COc3cccc4c3C(N)=NS(=O)(=O)N4)C2)c1 [Compound 601]
Fructose Enhancement EC50 Ratio (10 μM test compound): C (A “C” value indicates an enhancement ratio greater than 1 and less than 10) | Fructose Enhancement EC50 Ratio (50 μM test compound): C (A “C” value indicates an enhancement ratio greater than 1 and less than 10) | Sucrose Enhancement EC50 Ratio (3 μM test compound): C (A “C” value indicates an enhancement ratio greater than 1 and less than 10) | Sucrose Enhancement EC50 Ratio (10 μM test compound): C (A “C” value indicates an enhancement ratio greater than 1 and less than 10) | Sucrose Enhancement EC50 Ratio (50 μM test compound): A (An “A” value indicates an enhancement ratio of greater than 20)

CCCNC(=O)c1ccnc(N2CCC[C@H](COc3cccc4c3C(N)=NS(=O)(=O)N4)C2)c1 [Compound 602]
Fructose Enhancement EC50 Ratio (10 μM test compound): C (A “C” value indicates an enhancement ratio greater than 1 and less than 10) | Fructose Enhancement EC50 Ratio (50 μM test compound): C (A “C” value indicates an enhancement ratio greater than 1 and less than 10) | Sucralose Enhancement EC50 Ratio (10 μM test compound): A (An “A” value indicates an enhancement ratio of greater than 20) | Sucralose Enhancement EC50 Ratio (50 μM test compound): A (An “A” value indicates an enhancement ratio of greater than 20) | Sucrose Enhancement EC50 Ratio (3 μM test compound): C (A “C” value indicates an enhancement ratio greater than 1 and less than 10) | Sucrose Enhancement EC50 Ratio (10 μM test compound): B (A “B” value indicates an enhancement ratio from 10 to 20)

NC1=NS(=O)(=O)Nc2cccc(OC[C@H]3CCCN(c4cc(C(=O)NCCO)ccn4)C3)c21 [Compound 603]
Fructose Enhancement EC50 Ratio (10 μM test compound): C (A “C” value indicates an enhancement ratio greater than 1 and less than 10) | Fructose Enhancement EC50 Ratio (50 μM test compound): C (A “C” value indicates an enhancement ratio greater than 1 and less than 10) | Sucralose Enhancement EC50 Ratio (10 μM test compound): A (An “A” value indicates an enhancement ratio of greater than 20) | Sucrose Enhancement EC50 Ratio (3 μM test compound): C (A “C” value indicates an enhancement ratio greater than 1 and less than 10) | Sucrose Enhancement EC50 Ratio (10 μM test compound): B (A “B” value indicates an enhancement ratio from 10 to 20) | Sucrose Enhancement EC50 Ratio (50 μM test compound): C (A “C” value indicates an enhancement ratio greater than 1 and less than 10)

COCCNC(=O)c1ccnc(N2CCC[C@H](COc3cccc4c3C(N)=NS(=O)(=O)N4)C2)c1 [Compound 604]
Fructose Enhancement EC50 Ratio (50 μM test compound): C (A “C” value indicates an enhancement ratio greater than 1 and less than 10) | Sucralose Enhancement EC50 Ratio (10 μM test compound): A (An “A” value indicates an enhancement ratio of greater than 20) | Sucrose Enhancement EC50 Ratio (50 μM test compound): B (A “B” value indicates an enhancement ratio from 10 to 20)
